# In patent US6365746B1, “Stable and water soluble bis Au(I) complexes and their synthesis” (Eastman Kodak Company, priority 1997, dated 2002):
# Experiments:
# Format in all cases: physicochemical
# [1] = Stability study of aqueous solution monitored by UV-visible spectroscopy
# Method: Stability Study of Compound S. To a 1000 mL borosilicate volumetric flask was added 14.7 g of Compound S and water. An aliquot of the gold solution was placed into a quartz cuvette and the keeping characteristics of the solution were monitored using UV-visible spectroscopy over the course of 25 days. A compound, TTT, a known sensitizer having a mesoionic heterocycle was similarly monitored.
# [2] = Stability in 0.025 N H2SO4 at room temperature (gold precipitation); conditions: 200 mg in 600 mL 0.025 N H2SO4, room temperature, after two weeks (duration of the study)
# Method: Stability of Compound S versus Compound TTT. Two different batches of Compound TTT and Compound S, each weighing 200 mg, were dissolved in 600 mL of a 0.025 N H2SO4. The solutions were allowed to stand at room temperature. One of the solutions containing Compound TTT had brownish colloidal gold precipitated within 5 days and the other batch had purplish gold specks after 7 days.
# [3] = Solubility study in water (gravimetric, filtrate residue); conditions: stirred in the dark 1 hr, filtered, duplicate
# Method: Solubility Study of compound S.5 H2O. To a 10 mL borosilicate volumetric flask was added 0.25 g of Compound S and a stir bar. Water was added to the 10 mL mark and the suspension was stirred in the dark for 1 hr. The suspension was filtered through a 0.25 μm syringe filter and 3.00 mL of the filtrate was placed into a tared porcelain dish (dried by heating at 125° C. for 12 hours followed by cooling to ambient temperature in a CaCl2 desiccator). The sample was placed into a vacuum desiccator and subjected to vacuum for ca. 60 hours. Finally, the dish and residue were weighed and the mass of the residue was determined by difference.
Substance,Change in Absorbance @ 235 nm ([1]; day 1),Change in Absorbance @ 235 nm ([1]; day 4),Change in Absorbance @ 235 nm ([1]; day 8),Change in Absorbance @ 235 nm ([1]; day 13),Change in Absorbance @ 235 nm ([1]; day 20),Change in Absorbance @ 235 nm ([1]; day 25),gold precipitate from the solution [2],average solubility [3]
"bis(1,4,5-trimethyl-1,2,4-triazolium-3-thiolate) gold (I) tetrafluoroborate [TTT, reference compound]",0,0.0222,0.0653,0.0868,0.1108,0.1340,,
potassium bis(1-[3-(2-sulfonatobenzamido)phenyl]-5-mercaptotetrazole potassium salt) aurate(I) pentahydrate [Compound S],0,0.0013,0.0015,0.0058,0.0070,0.0064,no gold precipitate,33.6 g/L
